This note sets out measurements from patent publication US5834284A, “N-acetylglucosaminyl transferase gene coding therefor and process for production thereof” (Suntory Limited, priority 1992, dated 1998).

In assay [1] the target is T1, GnT-V (β1,6-N-acetylglucosaminyl transferase) (Homo sapiens, UniProt Q09328).
T1 construct: 73/60 kDa
T1 sequence (Q09328 31-741): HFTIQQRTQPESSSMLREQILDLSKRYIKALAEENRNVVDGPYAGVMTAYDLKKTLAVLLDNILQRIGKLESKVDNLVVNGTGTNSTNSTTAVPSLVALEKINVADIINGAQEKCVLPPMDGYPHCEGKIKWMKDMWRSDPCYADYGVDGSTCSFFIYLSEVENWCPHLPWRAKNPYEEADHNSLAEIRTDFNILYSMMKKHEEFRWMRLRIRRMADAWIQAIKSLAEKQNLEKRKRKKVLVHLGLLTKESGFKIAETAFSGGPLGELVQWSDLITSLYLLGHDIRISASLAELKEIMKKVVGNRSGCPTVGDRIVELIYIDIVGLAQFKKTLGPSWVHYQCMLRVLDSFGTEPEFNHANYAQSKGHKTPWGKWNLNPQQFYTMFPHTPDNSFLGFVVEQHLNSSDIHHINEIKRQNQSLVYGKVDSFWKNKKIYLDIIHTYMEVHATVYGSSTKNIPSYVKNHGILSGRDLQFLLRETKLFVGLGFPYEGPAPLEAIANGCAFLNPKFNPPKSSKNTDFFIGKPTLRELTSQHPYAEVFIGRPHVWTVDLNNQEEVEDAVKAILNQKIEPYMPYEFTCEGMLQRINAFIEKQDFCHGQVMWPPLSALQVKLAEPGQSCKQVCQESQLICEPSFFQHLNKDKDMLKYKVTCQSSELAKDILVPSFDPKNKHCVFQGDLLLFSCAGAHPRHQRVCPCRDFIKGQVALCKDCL
Nature of the assay: GnT-V enzyme activity assay with fluorescence-labeled sugar acceptors, product separated by HPLC. Format: biochemical. Particulars: for Relative reaction rate: acceptor 70 μM, purified GnT-V 0.1 mg protein/ml, GnGn-bi-PA = 100. The text has this: An enzyme activity can be easily assayed by labeling an acceptor with a radioisotope or with fluorescent substance, adding the enzyme and separating the reaction product by high performance liquid chromatography (HPLC). More specifically, the method reported by Tanigichi et al. (Taniguchi, N., Nishikawa, A., Fujii, S., and Gu. J., Methods Enzymol. 179, 397-408 (1989); Nishikawa, H., Gu, J., Fujii, S., and Tanigichi, N., Biochem. Biophys. Acta, 1035, 313-318 (1990)) may be followed.
Namely, the enzyme activity of GnT-V can be assayed using GnGn-2-aminopyridine (GnGn-bi-PA) as an acceptor, and UDP-GluNAc (Sigma) as a donor. Activity is shown by an amount of transferred N-acetylglucosamine/hour/mg protein. Note, an amount of protein can be measured according to a reported method (Redinbaugh, M. G., and Turley, R. B., Anal. Biochem. 153, 267-271 (1986)) using a BCA kit (Pierce Chemical Company, Rockford, Ill.) and using bovine serum albumin as a standard.
Substrate specificity was determined using the following compound as sugar acceptors according to the above-mentioned enzyme activity measuring method. [drawing 1]
GnGnF--, GnGF--, GGnF--, Gn(Gn)GnF--, Gn(Gn)Gn--, GG--, GnGn--, MM-- and GnM-- were isolated from the bovine IgG treated with anhydrous hydrazine and then labeled with a fluorescence label according to Hase et al. method (Hase, S., Ibuki, T., and Ikehara, T., J. Biochem. 95, 197-203 (1984). The purified GnT-V was diluted with PBS buffer to a final concentration of 0.1 mg protein/ml, and then reacted with each fluorescence-labeled sugar acceptor. A result is shown in Table 2.

The target of a further assay is T2, GnT-V expression product (Homo sapiens, UniProt Q09328).
T2 sequence (Q09328 1-741): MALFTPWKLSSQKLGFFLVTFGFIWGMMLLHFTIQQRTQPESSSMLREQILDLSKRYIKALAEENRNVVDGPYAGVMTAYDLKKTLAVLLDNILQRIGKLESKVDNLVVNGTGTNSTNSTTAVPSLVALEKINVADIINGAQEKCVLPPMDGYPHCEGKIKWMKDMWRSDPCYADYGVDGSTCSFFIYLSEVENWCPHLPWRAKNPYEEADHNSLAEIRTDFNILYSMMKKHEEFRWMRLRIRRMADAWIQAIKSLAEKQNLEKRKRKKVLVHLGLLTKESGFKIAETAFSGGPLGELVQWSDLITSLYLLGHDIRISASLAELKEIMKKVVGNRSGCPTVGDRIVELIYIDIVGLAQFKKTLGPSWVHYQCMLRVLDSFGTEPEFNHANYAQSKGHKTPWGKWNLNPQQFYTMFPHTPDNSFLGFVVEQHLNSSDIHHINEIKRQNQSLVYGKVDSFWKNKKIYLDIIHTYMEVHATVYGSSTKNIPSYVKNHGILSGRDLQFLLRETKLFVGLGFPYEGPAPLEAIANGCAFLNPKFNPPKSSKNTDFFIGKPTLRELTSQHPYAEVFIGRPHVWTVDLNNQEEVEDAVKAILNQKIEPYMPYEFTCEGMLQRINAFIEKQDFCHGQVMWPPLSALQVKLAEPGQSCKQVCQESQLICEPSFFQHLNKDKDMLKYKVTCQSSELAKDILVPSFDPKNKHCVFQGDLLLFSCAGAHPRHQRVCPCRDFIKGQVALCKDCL
Nature of the assay: Enzyme activity of cloned GnT-V cDNA expressed in COS-1 cells. Format: biochemical. The following applies: supernatant of disrupted COS-1 cells. On the procedure: The expression vector constructed in Example 8 was used to express the GnT-V cDNA fragment in animal cells and GnT-V activity of the expressed protein was tested.
Expression vector containing GnT-V cDNA fragment was transfected to COS-1 cells, animal cells for expression, by electroporation. Namely, about 5×10^6 CO.S-1 cells previously prepared were suspended in HEPES buffer (50 mM Hepes, 137 mM NaCl, 5 mM KCl, 0.7 mM NaHPO3, 6 mM dextrose, pH 7.05), 60 μg of the above-mentioned plasmid was added thereon, and 800 μl of the suspension was subjected to electroporation in an electroporator (Bio-Rad) at 250V, […]. Next, all the suspensions of COS-1 cells electroporated with GnT-V gene was plated in a petri dish having the diameter of 6 cm, and cultured at 37° C. in 5% CO2 for 48 hours. The cultured ceils were collected with a rubber-coated police man bar, and suspended in 50 μl of PBS buffer, and the cells were disrupted with a sonicator. Next, the disruptant was centrifuged to collect a supernatant, and 15 μl of the supernatant was used to assay enzyme activity.

With `CC(=O)N[C@H]1[C@H](O[C@@H]([C@H](O)[C@H](CNc2ccccn2)NC(C)=O)[C@H](O)CO)O[C@H](CO)[C@@H](O[C@@H]2O[C@H](CO[C@H]3O[C@H](CO)[C@@H](O)[C@H](O)[C@@H]3O[C@@H]3O[C@H](CO)[C@@H](O)[C@H](O)[C@H]3NC(C)=O)[C@@H](O)[C@H](O[C@H]3O[C@H](CO)[C@@H](O)[C@H](O)[C@@H]3O[C@@H]3O[C@H](CO)[C@@H](O)[C@H](O)[C@H]3NC(C)=O)[C@@H]2O)[C@@H]1O` [GnGn-bi-PA, GlcNAcβ1-2Manα1-3-(GlcNAcβ1-2Manα1-6)Manβ1-4GlcNAcβ1-4GlcNAc-2-aminopyridine], the Relative reaction rate in assay [1] amounted to 100. In assay [1] (substrate specificity), the “reactivity relative to GnGn-bi-PA acceptor taken as 100%” value came out at 100%. Moreover, at GnT-V expression product, the “conversion of substrate by expression product GnT-V (HPLC elution profile, FIG. 10)” value is recorded as “converts a substrate GnGn-bi-PA to a product GnGnGn-tri'-PA”.

In turn, `CC(=O)N[C@H]1[C@H](O[C@@H]([C@H](O)[C@H](CNc2ccccn2)NC(C)=O)[C@H](O)CO[C@@H]2O[C@@H](C)[C@@H](O)[C@@H](O)[C@@H]2O)O[C@H](CO)[C@@H](O[C@@H]2O[C@H](CO[C@H]3O[C@H](CO)[C@@H](O)[C@H](O)[C@@H]3O[C@@H]3O[C@H](CO)[C@@H](O[C@@H]4O[C@H](CO)[C@H](O)[C@H](O)[C@H]4O)[C@H](O)[C@H]3NC(C)=O)[C@@H](O)[C@H](O[C@H]3O[C@H](CO)[C@@H](O)[C@H](O)[C@@H]3O[C@@H]3O[C@H](CO)[C@@H](O)[C@H](O)[C@H]3NC(C)=O)[C@@H]2O)[C@@H]1O` [GGnF-bi-PA, GlcNAcβ1-2Manα1-3(Galβ1-4GlcNAc2Manα1-6)Manβ1-4GlcNAcβ1-4GlcNAc(Fucα1-6)-2-aminopyridine] displayed a Relative reaction rate in assay [1] of 0.2.
